In the CheMixHub viscosity set:

Test: xn = mol fraction of the nth substance listed

C=C(C)C(=O)OCCCCCCC + C1CCCCC1
viscosity [mPa·s], 101 kPa
Details	x1 = 0.002	x1 = 0.005	x1 = 0.01	x1 = 0.02
303 K	0.8392	0.8401	0.8252	0.8456
313 K	0.6991	0.7083	0.7012	0.7219
323 K	0.6114	0.6127	0.6159	0.6244

CCCCCCCCCCCCCCCCCC(=O)OC + C1CCCCC1
viscosity [mPa·s], 101 kPa
Details	x1 = 0.05	x1 = 0.1	x1 = 0.15	x1 = 0.2	x1 = 0.25	x1 = 0.3
298 K	1.22	1.46	1.73	2.03	2.33	–
303 K	1.14	1.35	1.58	1.86	2.12	2.45
308 K	1.06	1.25	1.46	1.71	1.95	2.2
313 K	0.99	1.16	1.34	1.58	1.78	2.02

CCCCCCCCCCCCO + C1CCCCC1
303.15 K, 101.33 kPa
Details	viscosity [mPa·s]
x1 = 0.0858	1.109
x1 = 0.1621	1.502
x1 = 0.305	2.569
x1 = 0.405	3.522
x1 = 0.506	4.63
x1 = 0.5985	5.781
x1 = 0.6982	7.191
x1 = 0.7746	8.412
x1 = 0.862	9.989

CCCCCCCCN + C1CCCCC1
303.15 K, 101 kPa
Details	viscosity [mPa·s]
x2 = 0.0971	1.138
x2 = 0.1959	1.096
x2 = 0.2997	1.036
x2 = 0.401	0.97
x2 = 0.497	0.952
x2 = 0.5993	0.913
x2 = 0.6975	0.863
x2 = 0.7993	0.82
x2 = 0.896	0.81

Cc1ccc(C)cc1 + C1CCCCC1
101 kPa
Details	viscosity [mPa·s]
303 K, x1 = 0.1025	0.7341
303 K, x1 = 0.2016	0.6783
303 K, x1 = 0.2982	0.6363
303 K, x1 = 0.402	0.6131
303 K, x1 = 0.4944	0.5946
303 K, x1 = 0.5992	0.5858
303 K, x1 = 0.7997	0.5735
303 K, x1 = 0.8951	0.5721
303.15 K, x2 = 0.1016	0.5673
303.15 K, x2 = 0.1997	0.572
303.15 K, x2 = 0.2851	0.5782
303.15 K, x2 = 0.3934	0.591
303.15 K, x2 = 0.4966	0.611
303.15 K, x2 = 0.5961	0.6362
303.15 K, x2 = 0.6976	0.6682
303.15 K, x2 = 0.7954	0.7086
303.15 K, x2 = 0.8986	0.763
313 K, x1 = 0.1025	0.6343
313 K, x1 = 0.2016	0.5965
313 K, x1 = 0.2982	0.5693
313 K, x1 = 0.402	0.5417
313 K, x1 = 0.4944	0.5288
313 K, x1 = 0.5992	0.5165
313 K, x1 = 0.6952	0.5142
313 K, x1 = 0.7997	0.5159
323 K, x1 = 0.1025	0.54
323 K, x1 = 0.2016	0.5237
323 K, x1 = 0.2982	0.4976
323 K, x1 = 0.402	0.4831
323 K, x1 = 0.4944	0.4765
323 K, x1 = 0.6952	0.462
323 K, x1 = 0.7997	0.4612
323 K, x1 = 0.8951	0.4608

Cc1ccc(C)cc1 + C1CCOC1
303.15 K, 101.33 kPa
Details	viscosity [mPa·s]
x2 = 0.1057	0.564
x2 = 0.2037	0.557
x2 = 0.2809	0.552
x2 = 0.4052	0.544
x2 = 0.5256	0.53
x2 = 0.6045	0.518
x2 = 0.7062	0.501
x2 = 0.8021	0.485
x2 = 0.9001	0.462

[Cl-].[Cl-].[Cl-].[Cl-].[Ge+4] + C1COCCO1
viscosity [mPa·s], 101 kPa
Details	x2 = 0.1519	x2 = 0.3148	x2 = 0.5071	x2 = 0.6631	x2 = 0.8814	x2 = 0.9218
298.15 K	0.626	0.67	0.745	0.837	0.978	1.087
313.15 K	0.539	0.57	0.627	0.687	0.784	0.856

CCCCCCCCCCCCO + C=CC(=O)OC
viscosity [mPa·s], 101.3 kPa
Details	x2 = 0.1127	x2 = 0.3078	x2 = 0.3842	x2 = 0.5147	x2 = 0.6206	x2 = 0.7884	x2 = 0.8506	x2 = 0.9093	x2 = 0.9554	x2 = 0.9794
298.15 K	11.57	5.722	4.4	2.703	1.891	0.992	0.785	0.629	0.53	0.484
308.15 K	8.309	4.391	3.385	2.157	1.515	0.833	0.668	0.549	0.473	0.438

CCCCCCCCCCCCO + C=CC(=O)OCC
viscosity [mPa·s], 101.3 kPa
Details	x2 = 0.0932	x2 = 0.2669	x2 = 0.3351	x2 = 0.4687	x2 = 0.5769	x2 = 0.7542	x2 = 0.8231	x2 = 0.8907	x2 = 0.9643	x2 = 0.9743
298.15 K	11.28	6.404	5.497	3.183	2.253	1.192	0.963	0.74	0.584	0.565
308.15 K	10.08	4.772	4.182	2.515	1.748	0.997	0.792	0.633	0.512	0.497

CCCCCCCCCCCCO + C=CC(=O)OCCCC
viscosity [mPa·s], 101.3 kPa
Details	x2 = 0.075	x2 = 0.2149	x2 = 0.2782	x2 = 0.3968	x2 = 0.5042	x2 = 0.7015	x2 = 0.7849	x2 = 0.8614	x2 = 0.9327	x2 = 0.9651
298.15 K	12.42	7.842	6.982	4.373	3.244	1.769	1.376	1.197	0.983	0.858
308.15 K	8.748	5.789	4.807	3.38	2.459	1.409	1.135	1.004	0.86	0.732

COC(=O)OCC(F)(F)F + CC1COC(=O)O1
298.15 K, 100 kPa
Details	viscosity [mPa·s]
x2 = 0.0999	1.13
x2 = 0.2012	1.26
x2 = 0.3	1.38
x2 = 0.3991	1.51
x2 = 0.5012	1.66
x2 = 0.6016	1.82
x2 = 0.699	2
x2 = 0.7994	2.18
x2 = 0.9002	2.36

Cc1ccc(C)cc1 + CC#N
308.15 K, 101 kPa
Details	viscosity [mPa·s]
x1 = 0.1008	0.3403
x1 = 0.2001	0.3636
x1 = 0.2981	0.3915
x1 = 0.3964	0.4147
x1 = 0.4985	0.4387
x1 = 0.5923	0.4603
x1 = 0.6937	0.4799
x1 = 0.7907	0.4989
x1 = 0.9051	0.5199

CC(=O)OCC[N+](C)(C)C.[Cl-] + CC(=O)CCC(=O)O
101 kPa, x2 = 0.75
Details	viscosity [mPa·s]
293.15 K	164.5
303.15 K	85.88
313.15 K	46.75
323.15 K	31.58

c1ccc(Nc2ccccc2)cc1 + CC(=O)O
323.15 K, 101.33 kPa
Details	viscosity [mPa·s]
x1 = 0.1031	1.083
x1 = 0.2023	1.242
x1 = 0.4039	2.267
x1 = 0.5079	2.799
x1 = 0.6113	3.35
x1 = 0.6724	3.714
x1 = 0.7895	4.486

Fc1ccccc1 + CC(=O)OCCC(C)C
viscosity [mPa·s], 101 kPa
Details	x2 = 0.0669	x2 = 0.1372	x2 = 0.2148	x2 = 0.2975	x2 = 0.3897	x2 = 0.4843	x2 = 0.5939	x2 = 0.713	x2 = 0.8486
303.15 K	0.541	0.565	0.591	0.613	0.637	0.661	0.682	0.706	0.727
313.15 K	0.48	0.501	0.524	0.543	0.561	0.579	0.597	0.613	0.629

NCCO.O=CO + CC(C)(N)CO
viscosity [mPa·s], 100 kPa
Details	x1 = 0.1475	x1 = 0.2287	x1 = 0.3157	x1 = 0.409	x1 = 0.5093	x1 = 0.6175	x1 = 0.7346
298.15 K	170.6	165.1	148.3	126.5	107.4	84.75	64.21
303.15 K	118.8	113	103.2	90.68	78.55	62.99	49.24
308.15 K	82.33	79.18	74.33	66.23	58.35	47.99	38.25
313.15 K	58.68	57.28	54.44	49.47	44.41	37.11	30.16
318.15 K	42.89	42.1	40.82	37.69	34.31	29.35	24.25
323.15 K	31.84	31.65	31.24	29.32	27.04	23.55	19.78

Cc1ccc(C)cc1 + CC(C)=O
307.35 K, 101.33 kPa
Details	viscosity [mPa·s]
x2 = 0.1403	0.5
x2 = 0.4308	0.429
x2 = 0.5768	0.4
x2 = 0.6298	0.385
x2 = 0.7285	0.353
x2 = 0.9118	0.311

OCCOCCO + CC(C)=O
298.1 K, 101 kPa
Details	viscosity [mPa·s]
x1 = 0.2	0.682
x1 = 0.4	1.669
x1 = 0.5	2.655
x1 = 0.6	4.301
x1 = 0.8	11.1

Cc1ccc(C)cc1 + CC(C)CC(C)(C)C
308.15 K, 101 kPa
Details	viscosity [mPa·s]
x2 = 0.072	0.5266
x2 = 0.1401	0.5074
x2 = 0.2197	0.4893
x2 = 0.3074	0.4732
x2 = 0.4051	0.4595
x2 = 0.507	0.4479
x2 = 0.6185	0.44
x2 = 0.7382	0.4348
x2 = 0.8619	0.4333

O=Cc1ccccc1 + CC(C)CCO
298.1 K, 101 kPa
Details	viscosity [mPa·s]
x1 = 0.1103	2.842
x1 = 0.202	2.39
x1 = 0.2988	2.057
x1 = 0.3333	1.959
x1 = 0.4051	1.809
x1 = 0.4839	1.67
x1 = 0.6101	1.51
x1 = 0.6944	1.44
x1 = 0.7979	1.373
x1 = 0.8987	1.34

CC(C)CCCC(C)CCCC(C)CCCCC(C)CCCC(C)CCCC(C)C (stereo not drawn) + CC(C)CO
101 kPa
Details	viscosity [mPa·s]
298.15 K, x2 = 0.1032	22.85
308.15 K, x2 = 0.1672	13.45

CCCC[N+](CCCC)(CCCC)CCCC.[Cl-] + CC(C)C[C@H](N)C(=O)O
Details	viscosity [mPa·s]
313.15 K, 100 kPa, x1 = 0.9	943

CC(C)CCCC(C)CCCC(C)CCCCC(C)CCCC(C)CCCC(C)C (stereo not drawn) + CC(C)O
viscosity [mPa·s], 101 kPa
Details	x2 = 0.0621	x2 = 0.218	x2 = 0.4022
298.15 K	–	19.65	–
303.15 K	18.75	15.45	13.05
